Data published in PubChem BioAssay (NCI).
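Tested at 5 concentrations; 48 h exposure; 96-well plates; endpoints linearly interpolated, else capped at highest concentration. At the GI50, growth is halved. TGI marks complete inhibition of growth.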

These molecules were tested on HCT-116 colon (assay: growth of human tumour cells (NCI), 48 h).
Work on `CC1=Nc2c(ccc3c2C(=O)c2ccccc2C3=O)NC(c2ccncc2)C1` (stereo not given) yielded a TGI of over 100 µM. With `Cc1ccc(C(=O)CC(Sc2cccc(Cl)c2Cl)c2ccc(Cl)cc2)cc1C` (stereo not given) the GI50 was 19.4 µM and the TGI was 49.8 µM. With `COc1cc(/C=C\c2ccc(O)cc2)cc(OC)c1OC` the TGI was over 59.8 µM. Molecule `C=C(COC(C)=O)CC(/C=C(\C)CCC=C(C)C)OC(C)=O` (stereo not given) has a TGI of over 100 µM. `CC1(C)CCc2cc3c(cc2O1)OCCC3=O` showed a TGI of over 100 µM. Work on `Oc1c2c(c(O)c3ccccc13)=N[C@@H](c1ccccc1)[C@H](c1ccccc1)N=2` yielded a TGI of over 100 µM. `c1cc[c]([Sn]([S]c2cccc3cccnc23)([c]2ccccc2)[c]2ccccc2)cc1` showed a GI50 of 0.0161 µM and a TGI of 0.039 µM. Molecule `O=C1CCn2c([nH]c3cccc4cccc2c43)=N1` has a TGI of over 100 µM. `C=C1CC(COc2cc(Cl)nc(N)n2)C1` showed a GI50 of 35.1 µM. For `CCOc1cccc2nc3cccc(C(=O)NCCN(C)C)c3nc12`, the TGI was 2.37 µM. Work on `Cc1cc(C)nc(NS(=O)(=O)c2ccc(Nc3c4ccccc4nc4c(C(=O)N5CCN(CCOS(C)(=O)=O)CC5)ccc(Cl)c34)cc2)n1` yielded a TGI of over 100 µM. `Clc1cc(Cl)c2c(Cl)cc(Cl)c3c2c1N=S=N3` showed a TGI of over 100 µM. In the case of `CN1CCN(C)C1c1cccc(C2N(C)CCN2C)c1`, the TGI is reported as over 100 µM. In the case of `CC(=O)OCCOCBr`, the TGI is reported as over 100 µM. `O=C1c2ccccc2-c2c1c1ccccc1c(=O)n2CCNCCCNCCn1c2c(c3ccccc3c1=O)C(=O)c1ccccc1-2` was tested, and the GI50 was under 0.005 µM and the TGI was 0.262 µM. `O=C(c1ccccc1)[C@H]1Nc2cnccc2C2c3ccccc3CC21` (stereo not given in full) gave a TGI of over 38.4 µM. Work on `CN(C)c1nc(-c2cccs2)n2nc(-c3ccc(Cl)cc3)cc2n1` yielded a GI50 of 2.43 µM and a TGI of over 100 µM. `COc1ccc(C(=O)C(C(=O)CCC(=O)Nc2cccc(C(F)(F)F)c2)c2ccccc2)cc1` (stereo not given) was tested, and the TGI was over 100 µM. `NC1=NC(=O)C(CC(=O)Nc2ccc([N+](=O)[O-])cc2[N+](=O)[O-])S1` (stereo not given) gave a TGI of over 100 µM. `O=C1c2ccccc2-c2cccc3ccc(Cc4ccccc4)c1c23` was tested, and the TGI was over 100 µM. `COC(=O)/C(=N\NC(=S)NN)C(C(=O)C(=O)Nc1ccccc1C(N)=O)c1nc2ccccc2[nH]c1=O` (stereo not given) was tested, and the TGI was over 100 µM. In the case of `CN(C)CCNC(=O)Nc1c(C#N)[n+]([O-])c2cc(Cl)c(Cl)cc2[n+]1[O-]`, the GI50 is reported as 13.4 µM and the TGI is reported as over 100 µM. For `CC/C=C\C/C=C\C1CC(=O)NCCCNCCCCN1` (stereo not given), the TGI was over 100 µM. Work on `CC1CCCC(C(=O)/C(=C/c2cccc(Cl)c2)C(=O)C(=O)O)C1` (stereo not given) yielded a TGI of 26.9 µM. Molecule `CCCS(=O)(=O)c1nc(NC2CC2)cc(-c2ccc3c(ccn3C3CC(C)(C)NC(C)(C)C3)c2)n1` has a GI50 of 1.68 µM and a TGI of 3.22 µM. Molecule `N#CC(C#N)=Cc1cccc(Oc2ccccc2)c1` has a TGI of 32.9 µM. With `Cc1ncc([N+](=O)[O-])n1CCNC(=O)CCCCn1ccnc1[N+](=O)[O-]` the TGI was over 100 µM. Molecule `COc1ccc(/C=C/C(=O)c2sc(-n3nc(-c4ccccc4)cc3-c3ccccc3)nc2C)cc1OC` has a TGI of over 100 µM. With `NC(CCSCC(F)F)C(=O)O` (stereo not given) the TGI was over 100 µM. `COC(=O)NC/C=C\c1nc(CC/C=C\C(=O)OC2CC3CC(=O)O[C@@H](/C=C/CC(C)C)C[C@@H]4CCC(C)C(C[C@@H](OC)CC(C2)O3)O4)co1` (stereo not given in full) showed a GI50 of under 0.01 µM and a TGI of 57.5 µM. `CC1(C)OC(=O)C=C([O-])O1.CC1(C)OC(=O)C=C([O-])O1.O=c1c(O)c(-c2ccc([O-])cc2[O-])oc2cc(O)cc(O)c12.[Ti+4]` gave a TGI of over 100 µM. For `Nc1ccc(SC23CC4CC(CC(C4)C2)C3)cc1`, the TGI was over 100 µM. `CCOC(=O)[C@@H](C)C[C@H](Cc1ccccc1)NC(=O)c1csc([C@@H](C[C@H](C(C)C)N(C)C(=O)[C@@H](NC(=O)[C@H]2CCCCN2C)C(C)(C)C)OC(C)=O)n1` gave a GI50 of under 0.00167 µM.

Each molecule was assayed on HT29 colon (assay: growth of human tumour cells (NCI), 48 h).
`CN(C)C(=S)/N=c1\ss/c(=N\S(=O)(=O)c2ccccc2)n1-c1ccccc1` showed a TGI of over 100 µM. Molecule `O=C(N/N=C/c1ccc(Cl)cc1Cl)c1ccccc1Nc1cccc(C(F)(F)F)c1` has a GI50 of 14.4 µM and a TGI of over 100 µM. For `N#Cc1c(N)c(C(=O)O)nn(-c2cccc(C(F)(F)F)c2)c1=O`, the TGI was over 100 µM. `CCOC(=O)Cc1nc(/C(C#N)=C/c2ccco2)[nH]c(=O)c1C#N` gave a TGI of over 100 µM. In the case of `CC1=Nc2c(ccc3c2C(=O)c2ccccc2C3=O)NC(c2ccncc2)C1` (stereo not given), the GI50 is reported as over 100 µM and the TGI is reported as over 100 µM. `COc1cc(/C=C\c2ccc(O)cc2)cc(OC)c1OC` was tested, and the TGI was over 100 µM. `C=C(COC(C)=O)CC(/C=C(\C)CCC=C(C)C)OC(C)=O` (stereo not given) gave a TGI of over 100 µM. For `CC1(C)CCc2cc3c(cc2O1)OCCC3=O`, the TGI was over 100 µM. Work on `Oc1c2c(c(O)c3ccccc13)=N[C@@H](c1ccccc1)[C@H](c1ccccc1)N=2` yielded a TGI of over 100 µM. `c1cc[c]([Sn]([S]c2cccc3cccnc23)([c]2ccccc2)[c]2ccccc2)cc1` gave a GI50 of 0.0223 µM and a TGI of 0.0908 µM. For `O=C1CCn2c([nH]c3cccc4cccc2c43)=N1`, the TGI was over 100 µM. Work on `C=C1CC(COc2cc(Cl)nc(N)n2)C1` yielded a GI50 of 37 µM. In the case of `CCOc1cccc2nc3cccc(C(=O)NCCN(C)C)c3nc12`, the TGI is reported as 7.14 µM. With `Cc1cc(C)nc(NS(=O)(=O)c2ccc(Nc3c4ccccc4nc4c(C(=O)N5CCN(CCOS(C)(=O)=O)CC5)ccc(Cl)c34)cc2)n1` the TGI was over 100 µM. Work on `Clc1cc(Cl)c2c(Cl)cc(Cl)c3c2c1N=S=N3` yielded a TGI of over 100 µM. Work on `CN1CCN(C)C1c1cccc(C2N(C)CCN2C)c1` yielded a TGI of over 100 µM. `CC(=O)OCCOCBr` was tested, and the TGI was over 100 µM. With `O=C1c2ccccc2-c2c1c1ccccc1c(=O)n2CCNCCCNCCn1c2c(c3ccccc3c1=O)C(=O)c1ccccc1-2` the GI50 was 0.051 µM. `CC(O)CN1C(=O)NC(Cc2ccccc2)C1=O` (stereo not given) gave a TGI of over 100 µM. Work on `O=C(c1ccccc1)[C@H]1Nc2cnccc2C2c3ccccc3CC21` (stereo not given in full) yielded a TGI of 50.5 µM. `COc1ccc(C(=O)C(C(=O)CCC(=O)Nc2cccc(C(F)(F)F)c2)c2ccccc2)cc1` (stereo not given) was tested, and the TGI was over 100 µM. `NC1=NC(=O)C(CC(=O)Nc2ccc([N+](=O)[O-])cc2[N+](=O)[O-])S1` (stereo not given) was tested, and the TGI was over 100 µM. Work on `O=C1c2ccccc2-c2cccc3ccc(Cc4ccccc4)c1c23` yielded a TGI of over 100 µM. `CN(C)CCNC(=O)Nc1c(C#N)[n+]([O-])c2cc(Cl)c(Cl)cc2[n+]1[O-]` was tested, and the GI50 was 27.3 µM and the TGI was over 100 µM. `CC/C=C\C/C=C\C1CC(=O)NCCCNCCCCN1` (stereo not given) showed a TGI of over 100 µM. Molecule `CC1CCCC(C(=O)/C(=C/c2cccc(Cl)c2)C(=O)C(=O)O)C1` (stereo not given) has a TGI of 38.1 µM. `CC(=O)c1c(C)n([O-])c2cc(C)c(C)cc2[n+]1=O` gave a TGI of over 100 µM. For `CCCS(=O)(=O)c1nc(NC2CC2)cc(-c2ccc3c(ccn3C3CC(C)(C)NC(C)(C)C3)c2)n1`, the GI50 was 1.81 µM and the TGI was 3.38 µM. `N#CC(C#N)=Cc1cccc(Oc2ccccc2)c1` showed a TGI of 49.9 µM. For `Cc1ncc([N+](=O)[O-])n1CCNC(=O)CCCCn1ccnc1[N+](=O)[O-]`, the TGI was over 100 µM. With `COc1ccc(/C=C/C(=O)c2sc(-n3nc(-c4ccccc4)cc3-c3ccccc3)nc2C)cc1OC` the TGI was over 100 µM. `NC(CCSCC(F)F)C(=O)O` (stereo not given) showed a TGI of over 100 µM. In the case of `COC(=O)NC/C=C\c1nc(CC/C=C\C(=O)OC2CC3CC(=O)O[C@@H](/C=C/CC(C)C)C[C@@H]4CCC(C)C(C[C@@H](OC)CC(C2)O3)O4)co1` (stereo not given in full), the GI50 is reported as 7.63 µM and the TGI is reported as over 100 µM. In the case of `CC1(C)OC(=O)C=C([O-])O1.CC1(C)OC(=O)C=C([O-])O1.O=c1c(O)c(-c2ccc([O-])cc2[O-])oc2cc(O)cc(O)c12.[Ti+4]`, the TGI is reported as over 100 µM. `Nc1ccc(SC23CC4CC(CC(C4)C2)C3)cc1` gave a TGI of over 100 µM. In the case of `CCOC(=O)[C@@H](C)C[C@H](Cc1ccccc1)NC(=O)c1csc([C@@H](C[C@H](C(C)C)N(C)C(=O)[C@@H](NC(=O)[C@H]2CCCCN2C)C(C)(C)C)OC(C)=O)n1`, the GI50 is reported as under 0.00167 µM and the TGI is reported as over 7.52 µM.

What follows are molecules tested on IGROV1 ovarian (assay: growth of human tumour cells (NCI), 48 h).
Work on `CN(C)C(=S)/N=c1\ss/c(=N\S(=O)(=O)c2ccccc2)n1-c1ccccc1` yielded a TGI of over 100 µM. With `Cc1c(C(=O)NN)nnn1-c1ccnc2c(C(F)(F)F)cccc12` the GI50 was over 100 µM and the TGI was over 100 µM. `N#Cc1c(N)c(C(=O)O)nn(-c2cccc(C(F)(F)F)c2)c1=O` gave a TGI of over 100 µM. Molecule `CCOC(=O)Cc1nc(/C(C#N)=C/c2ccco2)[nH]c(=O)c1C#N` has a TGI of over 100 µM. With `CC1=Nc2c(ccc3c2C(=O)c2ccccc2C3=O)NC(c2ccncc2)C1` (stereo not given) the TGI was over 100 µM. `Cc1ccc(C(=O)CC(Sc2cccc(Cl)c2Cl)c2ccc(Cl)cc2)cc1C` (stereo not given) showed a GI50 of 19.7 µM and a TGI of 41.2 µM. For `COc1cc(/C=C\c2ccc(O)cc2)cc(OC)c1OC`, the TGI was over 100 µM. For `C=C(COC(C)=O)CC(/C=C(\C)CCC=C(C)C)OC(C)=O` (stereo not given), the TGI was over 100 µM. Molecule `CC1(C)CCc2cc3c(cc2O1)OCCC3=O` has a TGI of over 100 µM. `Oc1c2c(c(O)c3ccccc13)=N[C@@H](c1ccccc1)[C@H](c1ccccc1)N=2` showed a TGI of over 100 µM. `c1cc[c]([Sn]([S]c2cccc3cccnc23)([c]2ccccc2)[c]2ccccc2)cc1` showed a GI50 of 0.0943 µM and a TGI of 0.351 µM. `O=C1CCn2c([nH]c3cccc4cccc2c43)=N1` gave a TGI of over 100 µM. `C=C1CC(COc2cc(Cl)nc(N)n2)C1` gave a GI50 of 84.1 µM. `Cc1cc(C)nc(NS(=O)(=O)c2ccc(Nc3c4ccccc4nc4c(C(=O)N5CCN(CCOS(C)(=O)=O)CC5)ccc(Cl)c34)cc2)n1` showed a TGI of over 100 µM. In the case of `Clc1cc(Cl)c2c(Cl)cc(Cl)c3c2c1N=S=N3`, the TGI is reported as over 100 µM. Molecule `CN1CCN(C)C1c1cccc(C2N(C)CCN2C)c1` has a TGI of over 100 µM. For `CC(=O)OCCOCBr`, the TGI was over 100 µM. `O=C1c2ccccc2-c2c1c1ccccc1c(=O)n2CCNCCCNCCn1c2c(c3ccccc3c1=O)C(=O)c1ccccc1-2` showed a GI50 of 1.19 µM and a TGI of over 50 µM.
